Data from the METLIN SMRT retention time set (Domingo-Almenara et al. 2019).

Assay: gradient 5% acetonitrile 3 min, to 50% in 2 min, to 85% in 15 min, held 3 min, 100 µL/min
Settings: column: Zorbax Extend-C18 2.1 x 50 mm; eluents: water / acetonitrile, 0.1% formic acid
How it was run: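 Standards, all pure, were combined into mixtures of ~100 molecules and run at 100 μL/min on a Zorbax Extend-C18 column (2.1 × 50 mm, 1.8 μm) with water and acetonitrile, each containing 0.1% formic acid. A coupled quadrupole time-of-flight mass spectrometer operated in positive and negative ionization mode. Retention time values come from computationally picked adduct peaks, each inspected manually.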

Row | SMILES | RP-LC retention time [s]
1 | CC1(C)C(=O)Nc2ccc(S(=O)(=O)N3CCC(c4noc(-c5cccnc5)n4)C3)cc21 (stereo unspecified) | 722
2 | Cn1c(=O)n(CC(=O)N2CCCCC2)c(=O)c2cnc(-c3ccccc3)nc21 | 918
3 | Cc1ccnc(N2CCCC(C(=O)NCC3CCN(Cc4ccccc4C)CC3)C2)n1 (stereo unspecified) | 596
4 | O=C(Cc1cn(Cc2ccccc2)c2ccccc12)NCc1cccs1 | 929
5 | CCOc1ccc(NC(=O)Cn2c(=O)cc(-c3nc(C(C)C)no3)c3ccccc32)cc1 | 1030
6 | CCOC(=O)COc1cc(O)cc2oc(-c3ccccc3)cc(=O)c12 | 695
7 | O=C(CSc1ncnc2nc[nH]c12)Nc1ccccc1C(F)(F)F | 618
8 | CC(C)(C)OC(=O)Nc1cnc(C(=O)O)cn1 | 625
9 | CC(Cc1ccco1)NC(=O)c1cc(S(=O)(=O)N2CCCCC2)ccc1Cl (stereo unspecified) | 967
10 | COc1ccc(OC)c(NC(=O)N2CCC3(CC2)NC(=O)c2ccccc2O3)c1 | 740
11 | Cc1cccc(OCC(=O)c2ccc3c(c2)N(C(C)C(=O)N2CCOCC2)C(=O)CO3)c1C (stereo unspecified) | 877
12 | O=C(NCc1cccnc1)C1CCCN(c2ncnc3c2oc2ccccc23)C1 (stereo unspecified) | 576
13 | Cc1cccc(-c2nnc(SCC(=O)N3CCC(C)CC3)o2)c1 | 969
14 | COc1cccc(-n2c(=O)c3sccc3n(Cc3nc(-c4ccccc4OC)no3)c2=O)c1 | 861
15 | COc1cccc(C(=O)N2C[C@@H]3C[C@H](NC(=O)c4ccccc4)[C@H]2C3)c1OC | 682
16 | Cc1noc(C2CN(C(=O)Nc3ccccc3Cl)CC23CCOCC3)n1 (stereo unspecified) | 732
17 | COc1ccc(-c2nnc(Cc3nc(-c4cccc(Cl)c4)no3)o2)cc1 | 1020
18 | O=C(c1ccc[nH]c1=O)N1CCC(Cn2c(COc3ccccc3)nc3ccccc32)CC1 | 556
19 | COc1cc(CCC(=O)N2CC(c3noc(C4CCCN4C)n3)C2)on1 (stereo unspecified) | 570
20 | CCSc1ccccc1C(=O)N1CCN(CCn2cccn2)CC1 | 568
21 | CC1=NS(=O)(=O)N(Cc2ccccc2)C=C1C(=O)OCc1ccccc1Cl | 1160
22 | Cc1ccc(-n2ncc3c(N4CCN(C)CC4)ncnc32)cc1Cl | 607
23 | COc1ccc(CNC(=O)c2nc3cccnc3n(C)c2=O)cc1 | 742

Row | SMILES | RP-LC retention time [s]
24 | O=C(c1ccc[nH]1)N1CCC2(CC1)N=C(c1ccc(Cl)cc1)NO2 | 776
25 | CC(C)c1c(C2CCN(C(=O)c3cccc(Br)c3)CC2)noc1N | 834
26 | CCC(=O)Nc1nc(-c2ccc3c(c2)N(CC)C(=O)CO3)cs1 | 752
27 | O=C(CN(CC1CCCO1)C(=O)c1cccc(Br)c1)N1CCNCC1 (stereo unspecified) | 602
28 | O=C(NC(Cc1ccccc1)c1nc2ccccc2[nH]1)c1cccs1 (stereo unspecified) | 607
29 | CCC(C)NC(=O)c1ccc(Cn2nc(C)c(S(=O)(=O)N3CCCCC3)c2C)cc1 (stereo unspecified) | 874
30 | Cc1nc(-c2noc(-c3ccc(F)cc3)n2)cn1CC(=O)Nc1ccc2c(c1)CCC2 | 966
31 | O=C(Cc1cccs1)N1CCc2c([nH]c3ccccc23)C1c1ccc(F)cc1 (stereo unspecified) | 1130
32 | C#CC1(N2CCCCC2)CCCCC1 | 638
33 | Cc1sc(NC(=O)CC(C)C)nc1-c1ccc2c(c1)N(C)C(=O)CO2 | 910
34 | COc1ccc(N2CCN(c3cc(SCC(=O)NCc4ccco4)ncn3)CC2)cc1 | 748
35 | Cc1nn(CC(=O)NC2CCCC2)c(=O)c2cc(-c3ccccc3)nn12 | 852
36 | Cc1[nH]c(=O)[nH]c(=O)c1S(=O)(=O)NC1CC2CCC1C2 (stereo unspecified) | 658
37 | CCN1CCn2cc(S(=O)(=O)Nc3ccc(OC)cc3C)cc2C1=O | 716
38 | Cc1nnc2c(=O)n(CC(=O)NCc3cc(F)ccc3F)c3cccnc3n12 | 670
39 | COc1ccc(CNC(=O)C2CCCN2S(=O)(=O)c2cc3c(cc2Cl)NC(=O)CO3)cc1 (stereo unspecified) | 745
40 | O=C(Nc1ccc(SCC(=O)N2CCN(c3ccccc3)CC2)nn1)c1ccccc1 | 796
41 | O=c1cccc2n1CC1CC2CN(Cc2nnc(-c3cccc(Br)c3)o2)C1 (stereo unspecified) | 803
42 | CCCn1c(-c2cccc(C(=O)NCc3c(C)cc(C)cc3C)c2)nc2cccnc21 | 979
43 | Cc1cc2[nH]c(C(=O)Nc3ccc(Cl)cc3C)c(CN(C)C)c2s1 | 704
44 | CC(NC(=O)c1ccc(CN2CCN(Cc3ccccc3)C(=O)C2=O)cc1)c1ccccc1 (stereo unspecified) | 812
45 | CC(C)N1CCn2cc(S(=O)(=O)Nc3ccc(Cl)cc3)cc2C1=O | 805
46 | Cc1ccc(-c2noc(C3CCCN3C(=O)c3cncc(Br)c3)n2)cc1 (stereo unspecified) | 961

Row | SMILES | RP-LC retention time [s]
47 | Cc1c(C(=O)O)nnn1-c1ccc(C(F)(F)F)cc1 | 730
48 | Cc1ccc(-c2cnn3c(N4CCN(c5cccc(C)n5)CC4)cc(C)nc23)cc1 | 776
49 | CCOC(=O)c1cnc2nc(C)ccc2c1Nc1ccc(F)cc1F | 716
50 | O=C(Nc1ccc2c(c1)CCCN2C(=O)C1CC1)c1ccccc1[N+](=O)[O-] | 716
51 | CN(C)C(=O)c1cc2c(s1)CCC(C(=O)NCc1ccncc1)C2 (stereo unspecified) | 556
52 | COC(=O)C(NC(=O)N1CCCn2nc(-c3ccc(OC)cc3)cc2C1)c1ccccc1 (stereo unspecified) | 758
53 | Cc1ccccc1S(=O)(=O)N1CCCC(CCC(=O)O)C1 (stereo unspecified) | 774
54 | CCC(=O)Nc1ccc(-n2cnc(C(=O)NCc3ccccc3)c2)nc1 | 697
55 | O=C(CN1CC=C(c2cnn(-c3ccc(F)cc3)c2)CC1)N1CCN(c2ccc(F)cc2)CC1 | 739
56 | CC(C)Cn1c(=O)c(N2CCN(C(=O)Nc3ccccc3)CC2)nc2ccncc21 | 577
57 | CCn1c(=O)c(N2CCC(C(=O)NCCCN3CCCC(C)C3)CC2)nc2cccnc21 (stereo unspecified) | 640
58 | Cc1cccc(N2C=C(C(=O)N3CCOCC3)S(=O)(=O)c3ccc(Cl)cc32)c1 | 868
59 | Cn1cc(CC(=O)NCc2ccc(F)cc2)c2cccnc21 | 669
60 | COc1ccc(NC(=O)N2CCCC2c2nc(-c3ccccc3OC)no2)cc1 (stereo unspecified) | 826
61 | O=C(Nc1cc(F)cc(F)c1)c1c(O)c2cccnc2n(-c2cccc(F)c2)c1=O | 1310
62 | CCOC(=O)c1csc(NC(=O)c2ccccc2Br)n1 | 780
63 | O=C(C1=CN(c2ccc(Cl)cc2)c2ccccc2S1(=O)=O)N1CCOCC1 | 791
64 | CCCNC(=O)C1CCCN(c2ccc(SCC(=O)Nc3ccc(F)c(F)c3)nn2)C1 (stereo unspecified) | 662
65 | Cc1nc(-c2ccc(N3CCN(C(=O)c4ccsc4)CC3)nc2)sc1C | 803
66 | CCCc1nnc(NC(=O)C2CCN(C(=O)c3ccc(F)cc3)CC2)s1 | 721
67 | CCc1nc(-c2ccc(-c3noc(COc4ccc(F)cc4)n3)cc2)cs1 | 1310
68 | COCCNC(=O)c1ccc2c(c1)CCCN2S(=O)(=O)c1ccc(Cl)cc1 | 885
69 | CC(C)(C)C(=O)Nc1cnc(N2CCNCC2)c(C(=O)N2CCCC2)c1 | 588

Row | SMILES | RP-LC retention time [s]
70 | O=C(Nc1ccc2c(c1)CN(C(=O)c1cc(C3CC3)[nH]n1)CCO2)C1CC1 | 696
71 | CSc1nnc(-c2nn(C)c3c2CN(C(=O)c2ccc(Br)cc2)CC3)n1C | 753
72 | Cc1ccc2c(Nc3ccc4c(c3)OCO4)c(-c3nc(C4CC4)no3)cnc2n1 | 736
73 | C=CCn1c(=O)c2c(nc3n2CC(C)CN3c2cc(C)cc(C)c2)n(C)c1=O (stereo unspecified) | 1040
74 | Cc1ccc(-c2ncc(NC(=O)c3cccs3)cn2)cc1 | 982
75 | COc1ccc(N2C(=O)c3cc(C)nn3CC2(C)C(=O)NCc2ccc(F)cc2)cc1 (stereo unspecified) | 770
76 | COc1ccc(/C=C2\CCc3ccccc3C2=O)cc1OC | 994
77 | COc1ncccc1CNC(=O)c1cc(Cl)ccc1F | 1180
78 | COc1ccc(S(=O)(=O)NC2CCN(c3ccc(=O)n(CC4CC4)n3)C2)cc1Cl (stereo unspecified) | 800
79 | Cc1oc2ccc(NS(=O)(=O)c3ccc(F)cc3)cc2c1C(=O)O | 742
80 | O=C(Nc1c(-c2ccccc2)nc2ccccn12)c1cc(Br)ccc1Cl | 717
81 | CC(C)Cn1c(=O)c2cc(C(=O)NC(C)c3ccco3)nn2c2ccccc21 (stereo unspecified) | 1030
82 | CCn1cc(CC(=O)NCc2ccc(F)cc2F)c2cccnc21 | 723
83 | CCc1ccc(-c2cc(C)no2)cc1S(=O)(=O)N1CCN(c2ccccn2)CC1 | 757
84 | CCc1ccccc1NC(=O)N(C)CC1CCOCC1 | 730
85 | O=C(Nc1ccc(Cl)cc1F)c1cc(C2CC2)on1 | 1090
86 | O=S(=O)(c1cccs1)N1CCN(c2cnn3c(C4CC4)nnc3c2)CC1 | 683
87 | COc1cc(NC(=O)COc2ccc(-c3nnc4n3CCCC4)cc2)cc(OC)c1OC | 646
88 | O=C1CCN(C2OC(CO)C(O)C2O)C(=O)N1 (stereo unspecified) | 1040
89 | CCNC(=O)C1=CCN(C(=O)c2cc(C)cc(C)c2)CC1 | 720
90 | CC(C)Cn1c(=O)c(C(=O)NC2CCCCCC2)nc2cccnc21 | 1090
91 | Cc1c(C(=O)N2CCCC2)cnn1-c1cc(-c2nc(C(C)(C)C)no2)ccn1 | 1030
